Test results from the NIST ThermoML archive (doi:10.1016/j.jct.2016.03.040).

Assay: mn = molality of the nth substance listed, in mol/kg
Settings: 100 kPa, Liquid; for speed of sound: Frequency=3 MHz, Sing-around technique in a fixed-path interferometer; for mass density: Vibrating tube method

O=C(N[C@H](CO)[C@H](O)c1ccc([N+](=O)[O-])cc1)C(Cl)Cl + O
Settings | mass density, 288.15 K [kg/m3] | mass density, 298.15 K [kg/m3] | mass density, 308.15 K [kg/m3] | mass density, 318.15 K [kg/m3] | speed of sound, 288.15 K [m/s] | speed of sound, 298.15 K [m/s] | speed of sound, 308.15 K [m/s] | speed of sound, 318.15 K [m/s]
m1 = 0.0005 | 999.273 | 997.209 | 994.205 | 990.372 | 1466.9 | 1496 | 1519.6 | 1536.2
m1 = 0.001 | 999.429 | 997.363 | 994.356 | 990.522 | 1467 | 1496.1 | 1519.7 | 1536.4
m1 = 0.002 | 999.643 | 997.576 | 994.56 | 990.713 | 1467.1 | 1496.2 | 1519.9 | 1536.5
m1 = 0.004 | 999.922 | 997.847 | 994.831 | 990.992 | 1467.5 | 1496.7 | 1520.2 | 1536.8

NCC(=O)O [2-aminoacetic acid] + O
Settings | mass density, 288.15 K [kg/m3] | mass density, 298.15 K [kg/m3] | mass density, 308.15 K [kg/m3] | mass density, 318.15 K [kg/m3] | speed of sound, 288.15 K [m/s] | speed of sound, 298.15 K [m/s] | speed of sound, 308.15 K [m/s] | speed of sound, 318.15 K [m/s]
m1 = 0.01095 | 999.494 | 997.428 | 994.433 | 990.57 | 1467.3 | 1496.5 | 1520 | 1536.6
m1 = 0.02116 | 999.815 | – | 994.686 | 990.869 | 1467.9 | 1497 | 1520.6 | 1537.1
m1 = 0.04014 | 1000.41 | 998.287 | 995.236 | 991.411 | 1469 | 1498 | 1521.5 | 1538
m1 = 0.06033 | 1001.05 | – | 995.832 | 991.989 | 1470.1 | 1499 | 1522.5 | 1539
m1 = 0.08023 | 1001.7 | 999.548 | – | – | 1471.2 | 1500.1 | 1523.5 | 1540
m1 = 0.1006 | 1002.36 | 1000.17 | 997.123 | 993.251 | 1472.4 | 1501.2 | 1524.5 | 1540.9
m1 = 0.15 | 1003.96 | 1001.73 | – | 994.665 | 1475.2 | 1503.8 | 1527 | 1543.3
m1 = 0.2003 | 1005.57 | 1003.28 | 1000.2 | 996.211 | 1478 | 1506.4 | 1529.5 | 1545.7
